Reference: US5726195A, “Aminoacyl adenylate mimics as novel antimicrobial and antiparasitic agents” (Cubist Pharmaceuticals, Inc., priority 1996, dated 1998)
pIC50: −log10 of the molar value. In brackets after ≈: the same amount, converted by molar mass.

Key:
[1] = test system: multidrug resistant Streptococcus pyogenes (#OTTO 209); test: Mouse protection test against multidrug resistant Streptococcus pyogenes; format: in vivo, Streptococcus pyogenes; female CD-1 mice; details: 10 mg/kg sc (positive control), repeated at 4 hours, 7 days
From the text: The mouse protection test is an industry standard for measuring the efficacy of a test compound in vivo [for examples of this model see J. J. Clement, et al., Antimicrobial Agents and Chemotherapy, 38 (5), 1071-1078, (1994)]. As exemplified below, this test was used to show the in vivo efficacy of the compounds of the present invention against bacteria.
The in vivo activity of compound X against multidrug resistant bacteria was established by infecting female CD-1 mice (Charles River Lab, Massachusettes) weighing 20-24 g intraperitoneally with multidrug resistant Streptococcus pyogenes inoculum. The inoculum was prepared from multidrug resistant Streptococcus pyogenes (resistant to erythromycin, tetracycline, and chloramphenicol, #OTTO 209 obtained from Dr. Pentti Huovinen, National Public Health Institute, Finland) which was cultured in brain heart infusion broth (Baltimore Biological Laboratories, Maryland) at 37° C. for 2 hr, and then 0.1 ml of the culture was diluted with the medium to 1.0 ml for reading its OD at 600 nm (0.12). The turbidity of a 0.5 McFarland standard is equivalent to OD600 0.1, or 10^8 cfu/ml. Then, 4×10^8 cfu of the bacteria (333 μl was added to 20 ml of phosphate buffered saline (Sigma P-0261 ) containing 10 % hog gastric mucin (Sigma M-2378). All animals were injected with 0.5 ml of the inoculum, equivalent to 10^7 cfu/mouse which is the dose causing ~100% death of the animals without treatment.
Compound X (60 mg) was dissolved in 6.0 ml of 0.05M Tris.HCl (pH 8.8) to give a solution of 10 mg/ml. This solution was serially diluted two times with 0.05M Tris.HCl by 5-fold (1.0 ml to 5.0 ml) to give 2 and 0.4 mg/ml solutions. The known antibiotic vancomycin HCl (Sigma V-2002, in normal saline, 1 mg/ml, pH 6.0-7.0) was used as a positive control. All the solutions were filtered with 0.2 μm Nalgene syringe filter. Immediately after the bacterial inoculation, group 1 animals were subcutaneously (sc) injected with 0.05M Tris.HCl (no antibiotic) and groups 2 to 4 were given compound X sc at 4, 20 and 100 mg/kg, respectively. Group 5 animals received vancomycin sc at 10 mg/kg. These injections were repeated once at 4 hours after the inoculation for the respective groups. The injection volume at each time was 10 ml per kilogram of body weight. The 50% protective dose (PD50) is calculated on the basis of the number of mice surviving 7 days after inoculation.

E. faecalis ATCC 33011 = test: Whole cell antimicrobial screen, MIC; format: cell-based; details: Enterococcus faecalis, ATCC33011
Procedure: (§1) Compounds were tested for antimicrobial activity against a panel of organisms according to standard procedures described by the National Committee for Clinical Laboratory Standards (NCCLS document M7-A3, Vol. 13, No. 25, 1993/NCCLS document M27-P, Vol. 12, No. 25, 1992). Compounds were dissolved in 100% dimethyl sulfoxide and were diluted to the final reaction concentration (0.1 μg/mL-500 μg/mL) in microbial growth media. In al cases the final concentration of dimethyl sulfoxide incubated with cells is less than or equal to 1%. For minimum inhibitory concentration (MIC) calculations, 2-fold dilutions of compounds were added to wells of a microtiter plate containing 5×10^4 bacteria or fungal cells in a final volume of 100 lambda of an appropriate media (Mueller-Hinton Broth; Haemophilus Test Media; Mueller-Hinton Broth+5% Sheep Blood; or […]). Plates were incubated overnight at an appropriate temperature (30° C.-37° C.) and optical densities (measure of cell growth) were measured using a commercial plate reader. The MIC value is defined as the lowest compound concentration inhibiting growth of the test organism.

S. aureus ATCC 14154 = test: Whole cell antimicrobial screen, MIC; format: cell-based; details: Staphylococcus aureus, ATCC14154
Procedure: as §1

[2] = test system: S. epidermidis ATCC 33501; test: Whole cell antimicrobial screen, MIC; format: cell-based; details: Staphylococcus epidermidis, ATCC33501
Procedure: as §1

E. faecium ATCC 6569 = test: Whole cell antimicrobial screen, MIC; format: cell-based; details: Enterococcus faecium, ATCC6569
Procedure: as §1

[3] = test system: S. saprophyticus ATCC 35552; test: Whole cell antimicrobial screen, MIC; format: cell-based; details: Staphylococcus saprophyticus, ATCC35552
Procedure: as §1

C. albicans ATCC 10231 = test: Whole cell antimicrobial screen, MIC; format: cell-based; details: Candida albicans, ATCC10231
Procedure: as §1

S. pyogenes ATCC 8668 = test: Whole cell antimicrobial screen, MIC; format: cell-based; details: Streptococcus pyogenes, ATCC8668
Procedure: as §1

S. aureus ATCC 6538P = test: Whole cell antimicrobial screen, MIC; format: cell-based; details: Staphylococcus aureus, ATCC6538P
Procedure: as §1

[4] = target: E. Coli. IleRS (isoleucyl-tRNA synthetase) (Escherichia coli, UniProt P00956); test: Inhibition of isoleucyl-tRNA synthetase (aminoacylation of tRNA with [3H]isoleucine); format: biochemical; details: E. coli enzyme; irreversible inhibitors: values are 50% of the active enzyme concentration; read-out: IC50 E.Coli. IleRS
Chain of E. Coli. IleRS (isoleucyl-tRNA synthetase) (P00956 whole entry): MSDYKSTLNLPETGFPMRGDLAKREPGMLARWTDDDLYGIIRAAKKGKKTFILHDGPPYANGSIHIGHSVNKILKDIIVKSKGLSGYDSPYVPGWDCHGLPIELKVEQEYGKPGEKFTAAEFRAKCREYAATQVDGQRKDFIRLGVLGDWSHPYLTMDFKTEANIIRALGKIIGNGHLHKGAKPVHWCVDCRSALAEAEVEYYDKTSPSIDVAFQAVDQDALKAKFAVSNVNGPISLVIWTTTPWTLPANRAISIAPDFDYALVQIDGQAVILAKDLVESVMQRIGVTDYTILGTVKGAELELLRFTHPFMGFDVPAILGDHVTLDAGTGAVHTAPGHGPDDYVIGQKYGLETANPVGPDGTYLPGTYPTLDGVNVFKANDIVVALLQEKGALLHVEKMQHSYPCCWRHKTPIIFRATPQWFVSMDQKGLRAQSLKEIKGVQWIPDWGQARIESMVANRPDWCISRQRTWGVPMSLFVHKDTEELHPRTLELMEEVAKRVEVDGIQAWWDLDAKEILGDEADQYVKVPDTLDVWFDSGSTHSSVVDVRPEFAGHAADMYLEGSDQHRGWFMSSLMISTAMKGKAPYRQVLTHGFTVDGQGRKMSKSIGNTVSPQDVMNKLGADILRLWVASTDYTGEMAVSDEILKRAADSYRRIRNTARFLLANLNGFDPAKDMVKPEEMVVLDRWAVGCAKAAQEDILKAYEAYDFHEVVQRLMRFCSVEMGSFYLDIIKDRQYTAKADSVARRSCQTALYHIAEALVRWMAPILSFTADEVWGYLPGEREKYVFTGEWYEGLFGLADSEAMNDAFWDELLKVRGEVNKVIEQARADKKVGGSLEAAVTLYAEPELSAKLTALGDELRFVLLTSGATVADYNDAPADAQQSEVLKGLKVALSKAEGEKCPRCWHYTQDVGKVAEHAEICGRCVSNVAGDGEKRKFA
Procedure: The extent of aminoacylation of tRNA with isoleucine catalyzed by isoleucyl-tRNA synthetase enzyme was measured by monitoring the incorporation of [3H] isoleucine into trichloroacetic acid-precipitable tRNA in the presence of a compound of Formula I, as compared with activity in the absence of inhibitor. The isoleucyl-tRNA synthetase enzymes are well known in the prior art and can be obtained and purified by known methods (for example see: D. Kern et at., Biochimie, 61, 1257-1272 (1979) and J. Gilbart et al., Antimicrobial Agents and Chemotherapy, 37 (1), 32-38 (1993)).
Isoleucyl-tRNA synthetase enzyme (0.08-2.0 nM, preferably, 0.4 nM) was first pre-incubated at 25° C. with 0.05 mg/ml bovine serum albumin, 10 mM DTT, 2.5% dimethyl sulfoxide, with or without a compound of Formula I, for 20 minutes. At this point a substrate solution (a solution containing the following: ATP, [^3 H]isoleucine, tRNA, HEPES, magnesium chloride, and potassium chloride) was added to give a final concentration of 0.0286 mg/ml bovine serum albumin, 5.7 mM DTT, 4 mM ATP, 5-20 μM [^3 H] isoleucine (1-15 Ci/mmol), 90 μM crude tRNA or 2 μM isoleucine specific tRNA, 1.4% dimethyl sulfoxide, 30 mM HEPES (pH 7.5), 10 mM magnesium chloride, and 50 mM potassium chloride and incubated at 25° C. Aliquots were removed at selected times (e.g. 5, 10, 20 minutes) and applied to 3MM filter paper discs (Whatman) and then dropped into 5% (wt/vol) trichloroacetic acid for >5 minutes. Filters were washed for three 10-minute periods in 5% trichloroacetic acid, rinsed in 95% ethanol and diethyl ether, and radioactivity was measured with Betafluor™ (National Diagnostics) by liquid scintillation counting.
Inhibitor activity is reported in Table II as an IC50 value (inhibitor concentration causing 50% inhibition of enzyme activity) per a known amount of active enzyme. In the case of irreversible inhibitors (1:1 stoichiometry) these values are 50% of the active enzyme concentration. The IC50 (in nM, E. coli) values of representative compounds of the present invention are listed in the second column of Table II.

B. subtilis ATCC 6633 = test: Whole cell antimicrobial screen, MIC; format: cell-based; details: Bacillus subtilis, ATCC6633
Procedure: as §1

K. pneumonia ATCC 4352 = test: Whole cell antimicrobial screen, MIC; format: cell-based; details: Klebsiella pneumoniae, ATCC4352
Procedure: as §1

[5] = test system: M. catarrhalis ATCC 25240; test: Whole cell antimicrobial screen, MIC; format: cell-based; details: Moraxella catarrhalis, ATCC25240
Procedure: as §1

CN[C@H](CC(C)C)C(=O)N[C@H]1C(=O)N[C@@H](CC(N)=O)C(=O)N[C@H]2C(=O)N[C@H]3C(=O)N[C@H](C(=O)N[C@H](C(=O)O)c4cc(O)cc(O)c4-c4cc3ccc4O)[C@H](O)c3ccc(c(Cl)c3)Oc3cc2cc(c3O[C@@H]2O[C@H](CO)[C@@H](O)[C@H](O)[C@H]2O[C@H]2C[C@](C)(N)[C@H](O)[C@H](C)O2)Oc2ccc(cc2Cl)[C@H]1O [Vancomycin, vancomycin, reference compound]
Protective % [1]: 100%
Number of Alive ([1]; of 5 mice): 5

CC[C@H](C)[C@H](N)C(=O)NS(=O)(=O)OC[C@H]1O[C@@H](CCn2nnc(-c3ccc(OCc4ccc([N+](=O)[O-])s4)cc3)n2)[C@H](O)[C@@H]1O [XVIII]
MIC (E. faecalis ATCC 33011): > 500 mg/L
MIC (S. aureus ATCC 14154): 25 mg/L (≈ 38.1 µM)
MIC [2]: 5 mg/L (≈ 7.63 µM)
MIC (E. faecium ATCC 6569): > 500 mg/L
MIC [3]: 5 mg/L (≈ 7.63 µM)
MIC (C. albicans ATCC 10231): 100 mg/L (≈ 153 µM)
MIC (S. pyogenes ATCC 8668): 2 mg/L (≈ 3.05 µM)
MIC (S. aureus ATCC 6538P): 5 mg/L (≈ 7.63 µM)
pIC50 [4]: 9.22

CC[C@H](C)[C@H](N)C(=O)NS(=O)(=O)OC[C@H]1O[C@@H](CCn2nnc(-c3ccc(-c4ccccc4)cc3C)n2)[C@H](O)[C@@H]1O [XXI]
MIC (E. faecalis ATCC 33011): > 500 mg/L
MIC (S. aureus ATCC 14154): 500 mg/L (≈ 849 µM)
MIC (B. subtilis ATCC 6633): 100 mg/L (≈ 170 µM)
MIC (K. pneumonia ATCC 4352): 100 mg/L (≈ 170 µM)
MIC [2]: 50 mg/L (≈ 84.9 µM)
MIC (E. faecium ATCC 6569): 500 mg/L (≈ 849 µM)
MIC [3]: 50 mg/L (≈ 84.9 µM)
MIC [5]: < 50 mg/L
MIC (S. aureus ATCC 6538P): 100 mg/L (≈ 170 µM)
pIC50 [4]: 9.30

CC[C@H](C)[C@H](N)C(=O)NS(=O)(=O)OC[C@H]1O[C@@H](CCn2nnc(-c3ccc(Oc4ccc([N+](=O)[O-])s4)cc3)n2)[C@H](O)[C@@H]1O [XXXI]
MIC (E. faecalis ATCC 33011): > 500 mg/L
MIC (S. aureus ATCC 14154): 10 mg/L (≈ 15.6 µM)
MIC [2]: 5 mg/L (≈ 7.79 µM)
MIC (E. faecium ATCC 6569): 100 mg/L (≈ 156 µM)
MIC [3]: 2 mg/L (≈ 3.12 µM)
MIC (S. pyogenes ATCC 8668): 4 mg/L (≈ 6.23 µM)
MIC (S. aureus ATCC 6538P): 5 mg/L (≈ 7.79 µM)
pIC50 [4]: 8.89
